In US20230027361A1, “METTL3 MODULATORS” (priority 2019, published 2023):
Where two headings read alike, the source gives them in different places.

Experiments:
MOLM-13 cells [1] = experiment: MOLM-13 96 Hour Cell Proliferation Assay; type: cell-based; conditions: Homo sapiens
In short: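 MOLM-13 cells in RPMI 1640 with 10% FBS were plated overnight at 37 °C, then exposed to compound dilutions at 0.25% DMSO final for 96 h. Viability was read by CellTiter-Glo luminescence, normalised to staurosporine (100% death) and DMSO (0% death) controls, and IC50 was fitted by 4-parameter logistic regression.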

MOLM-13 cells [2] = experiment: MOLM-13 48 Hour Cell Proliferation Assay; type: cell-based; conditions: Homo sapiens
In short: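 IC50 derived by 4-parameter logistic regression of CellTiter-Glo luminescence, scaled between DMSO (0% death) and staurosporine (100% death) controls. Compounds applied for 48 h at 37 °C as 10-point, 4-fold dilutions, 0.25% DMSO final, to MOLM-13 cells pre-seeded overnight in RPMI 1640 plus 10% FBS.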

METTL3/METTL14 = METTL3/METTL14 (Homo sapiens, UniProt Q86U44); experiment: METTL3-14 Standard Enzyme Assay (METTL3 biochemical assay)
In short: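 Tritium transfer from ³H-SAM (100 nM) to biotinylated RNA (100 nM) captured on streptavidin flashplates and counted by scintillation. Enzyme complex (2.5 nM) with compound, 5 min preincubation, 30 min reaction at ambient temperature, HEPES pH 7.5 buffer, stopped by excess unlabeled SAM.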

[3] = read-out: METTL3 IC50; METTL3 biochemical assay
[4] = METTL3 biochemical assay; read-out: METTL3 IC50

METTL3/METTL14, sequence (Q86U44 whole entry, species assumed): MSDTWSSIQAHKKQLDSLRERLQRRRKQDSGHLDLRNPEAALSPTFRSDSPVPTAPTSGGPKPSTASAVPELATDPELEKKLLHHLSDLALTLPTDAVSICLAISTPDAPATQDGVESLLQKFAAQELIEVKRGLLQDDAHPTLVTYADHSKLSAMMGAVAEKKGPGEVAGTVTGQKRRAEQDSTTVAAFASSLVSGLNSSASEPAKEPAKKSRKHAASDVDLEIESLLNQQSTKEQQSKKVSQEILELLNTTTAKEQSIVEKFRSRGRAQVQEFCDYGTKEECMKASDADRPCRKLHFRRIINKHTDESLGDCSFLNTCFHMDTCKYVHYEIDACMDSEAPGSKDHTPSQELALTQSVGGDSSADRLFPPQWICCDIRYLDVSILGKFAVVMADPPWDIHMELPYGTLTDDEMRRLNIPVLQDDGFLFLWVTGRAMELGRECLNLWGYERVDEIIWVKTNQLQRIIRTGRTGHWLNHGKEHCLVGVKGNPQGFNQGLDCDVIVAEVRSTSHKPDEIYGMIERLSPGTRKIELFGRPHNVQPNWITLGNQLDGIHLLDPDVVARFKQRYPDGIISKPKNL
METTL3/METTL14, sequence (Q9HCE5 whole entry partner, species assumed): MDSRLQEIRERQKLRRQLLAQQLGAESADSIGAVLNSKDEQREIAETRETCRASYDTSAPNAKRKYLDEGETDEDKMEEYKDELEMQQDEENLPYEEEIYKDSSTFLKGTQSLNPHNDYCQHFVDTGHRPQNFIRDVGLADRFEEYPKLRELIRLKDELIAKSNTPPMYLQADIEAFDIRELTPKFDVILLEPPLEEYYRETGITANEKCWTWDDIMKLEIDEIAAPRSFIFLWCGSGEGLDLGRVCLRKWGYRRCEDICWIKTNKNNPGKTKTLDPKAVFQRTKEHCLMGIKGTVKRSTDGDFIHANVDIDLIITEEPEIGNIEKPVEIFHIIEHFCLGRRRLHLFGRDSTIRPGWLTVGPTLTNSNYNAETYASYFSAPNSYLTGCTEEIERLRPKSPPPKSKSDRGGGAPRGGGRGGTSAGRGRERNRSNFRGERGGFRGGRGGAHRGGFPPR

`CCNc1ccc2ccc(OC[C@H]3O[C@@H](n4cc(-c5cn(C)cn5)c5c(N)ncnc54)[C@@H](F)[C@@H]3O)cc2n1` [I-10] was tested, and the IC50 (MOLM-13 cells [1]) was < 1000 nM, the IC50 (MOLM-13 cells [2]) was 1000 to 10000 nM and the IC50 (METTL3/METTL14; [3]) was < 10 nM.
For `CNc1ccc2ccc(OC[C@H]3O[C@@H](n4cc(-c5ccn(C)n5)c5c(N)ncnc54)[C@@H](F)[C@@H]3O)cc2n1` [I-12], the IC50 (MOLM-13 cells [1]) was < 1000 nM, the IC50 (MOLM-13 cells [2]) was < 1000 nM and the IC50 (METTL3/METTL14; [3]) was < 10 nM.
In the case of `CNc1ccc2ccc(OC[C@H]3O[C@@H](n4cc(CC5CCCC5)c5c(N)ncnc54)[C@H](O)[C@@H]3O)cc2n1` [I-23], the IC50 (MOLM-13 cells [2]) is reported as > 10000 nM and the IC50 (METTL3/METTL14; [4]) is reported as < 10 nM.
With `CNc1ccc2ccc(OC[C@H]3O[C@@H](n4cc(C5CC5)c5c(N)ncnc54)[C@@H](F)[C@@H]3O)cc2n1` [I-29] the IC50 (MOLM-13 cells [1]; MOLM-13, 96 h) was < 1000 nM, the IC50 (MOLM-13 cells [2]) was < 1000 nM and the IC50 (METTL3/METTL14; [4]) was < 10 nM.
`CNc1ccc2ccc(OC[C@H]3O[C@@H](n4cc(C5CCCC5)c5c(N)ncnc54)[C@H](O)[C@@H]3O)cc2n1` [I-33, (2R,3R,4S,5R)-2-(4-amino-5-cyclopentyl-7H-pyrrolo[2,3-d]pyrimidin-7-yl)-5-(((2-(methylamino)quinolin-7-yl)oxy)methyl)tetrahydrofuran-3,4-diol] was tested, and the IC50 (MOLM-13 cells [1]; MOLM-13, 96 h) was < 1000 nM, the IC50 (MOLM-13 cells [2]) was 1000 to 10000 nM and the IC50 (METTL3/METTL14; [4]) was < 10 nM.
For `CNc1ccc2ccc(OC[C@H]3O[C@@H](n4cc(CC5CC5)c5c(N)ncnc54)[C@@H](F)[C@@H]3O)cc2n1` [I-36], the IC50 (MOLM-13 cells [1]; MOLM-13, 96 h) was < 1000 nM, the IC50 (MOLM-13 cells [2]) was 1000 to 10000 nM and the IC50 (METTL3/METTL14; [4]) was < 10 nM.
`CNc1ccc2ccc(CC[C@H]3O[C@@H](n4cc(C5CCCC5)c5c(N)ncnc54)[C@H](O)[C@@H]3O)cc2n1` [I-39] was tested, and the IC50 (MOLM-13 cells [1]; MOLM-13, 96 h) was < 1000 nM, the IC50 (MOLM-13 cells [2]) was 1000 to 10000 nM and the IC50 (METTL3/METTL14; [4]) was < 10 nM.
`CNc1ccc2ccc(OC[C@H]3O[C@@H](n4cc(Cl)c5c(N)ncnc54)[C@H](O)[C@@H]3O)cc2n1` [I-70] was tested, and the IC50 (MOLM-13 cells [1]; MOLM-13, 96 h) was < 1000 nM, the IC50 (MOLM-13 cells [2]) was 1000 to 10000 nM and the IC50 (METTL3/METTL14; [4]) was < 10 nM.
In the case of `CNc1ccc2ccc(OC[C@H]3O[C@@H](n4cc(Br)c5c(N)ncnc54)[C@H](O)[C@@H]3O)cc2n1` [I-73], the IC50 (MOLM-13 cells [1]; MOLM-13, 96 h) is reported as < 1000 nM, the IC50 (MOLM-13 cells [2]) is reported as 1000 to 10000 nM and the IC50 (METTL3/METTL14; [4]) is reported as < 10 nM.
In the case of `Cn1ccc(-c2cn([C@@H]3O[C@H](COc4ccc5ccc(N6CCC6)nc5c4)[C@@H](O)[C@@H]3F)c3ncnc(N)c23)n1` [I-149], the IC50 (MOLM-13 cells [1]; MOLM-13, 96 h) is reported as < 1000 nM, the IC50 (MOLM-13 cells [2]) is reported as < 1000 nM and the IC50 (METTL3/METTL14; [3]) is reported as < 10 nM.
